From US20040192720A1, “Novel heteroaryl alkylamide derivatives useful as bradykinin receptor modulators” (priority 2003, published 2004)

Target: T1, human B2 bradykinin receptors (CHO-hB2 cell membranes) (Homo sapiens, UniProt P30411)
T1 construct: purchased Receptor Biology, Inc. (Baltimore, Md.); host or cells: CHO-hB2 cells (membranes)
T1 sequence (P30411 1-391): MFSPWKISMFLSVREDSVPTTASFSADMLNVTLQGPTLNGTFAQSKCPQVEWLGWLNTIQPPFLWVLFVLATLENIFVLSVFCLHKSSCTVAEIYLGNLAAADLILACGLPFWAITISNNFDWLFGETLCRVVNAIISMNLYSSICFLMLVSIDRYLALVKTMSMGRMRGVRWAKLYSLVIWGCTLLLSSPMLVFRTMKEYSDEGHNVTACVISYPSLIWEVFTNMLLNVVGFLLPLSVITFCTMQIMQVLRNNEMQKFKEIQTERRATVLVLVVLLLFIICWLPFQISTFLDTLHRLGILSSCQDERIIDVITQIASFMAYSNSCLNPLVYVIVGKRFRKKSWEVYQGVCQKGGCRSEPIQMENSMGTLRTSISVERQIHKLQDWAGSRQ
Experiment: [35S]GTPγS Binding Assay in CHO-hB2 Cell Membranes
Format: biochemical
Conditions: bradykinin-stimulated [35S]GTPγS binding; for Functional Activity (% Basal): number in parentheses, concentration not given
Protocol: [^35S]GTPγS Binding Assay in CHO-hB2Cell Membranes
CHO-hB2 cell membranes were purchased from Receptor Biology, Inc. (Baltimore, Md.). 10 mg/mL of membrane protein was suspended in 10 mM TRIS-HC pH 7.2, 2 mM EDTA, 10% sucrose.
Membranes were added into 15 mL ice cold binding assay buffer. The assay buffer contained 50 mM HEPES, pH 7.6, 5 mM MgCl2, 100 mM NaCl, 1 mM DTT and 1 mM EDTA. The membrane suspension was homogenized twice with a Polytron and centrifuged at 3000 rpm for 10 min. The supernatant was then centrifuged at 18,000 rpm for 20 min. The pellet was saved in a tube and resuspended.
The pellet membranes (40 μg/mL) were preincubated with SPA (scintillation proximity assay) beads (20 mg/mL) at 25 C. ° for 45 min in the assay buffer. The SPA beads (5 mg/mL) coupled with membranes (10 μg/mL) were then incubated with 0.5 nM [^35S]GTPγS in the same HEPES buffer containing 50 μM GDP in total volume of 200 μL. Bradykinin was used to stimulate [^35S]GTPγS binding. Varying concentrations of drugs were incubated with bradykinin to inhibit bradykinin-stimulated [^35S]GTPγS binding. The basal binding was tested in the absence of bradykinin and no specific binding was tested in the present 10 μM unlabeled GTPγS. The radioactivity was quantified on a Packard Top Count, and calculated.
% of Basal=(stimulated binding−non specific binding)/(basal binding−non specific binding)×100.

Functional Activity (word result) | Functional Activity (% Basal) | Structure (SMILES)
Antagonist |  | Cc1ccc2cccc(OCc3c(Cl)ccc(N(C)C(=O)Cc4ccc(C(=O)c5ccc([N+](=O)[O-])cc5)n4C)c3Cl)c2n1 [Compound 63]
Antagonist |  | COc1ccc(C(=O)c2ccc(CC(=O)N(C)c3ccc(Cl)c(COc4cccc5ccc(C)nc45)c3Cl)[nH]2)cc1 [Compound 5]
No effect | 1 | CCCCn1c(CC(=O)N(C)c2ccc(Cl)c(COc3cccc4ccc(C)nc34)c2Cl)ccc1C(=O)c1ccc(C#N)cc1 [Compound 10]
Antagonist |  | Cc1ccc2cccc(OCc3c(C)ccc(N(C)C(=O)CCc4ccc(C(=O)c5ccc(Cl)nc5)n4C)c3C)c2n1 [Compound 88]
Antagonist | 100 | Cc1ccc2cccc(OCc3c(C)ccc(N(C)C(=O)Cc4ccc(C(=O)c5ccc(C#N)cc5)n4C)c3C)c2n1 [Compound 79, 2-[5-(4-Cyano-benzoyl)-1-methyl-1H-pyrrol-2-yl]-N-[2,4-dimethyl-3-(2-methyl-quinolin-8-yloxymethyl)-phenyl]-N-methyl-acetamide]
No effect | 1 | CCN(C(=O)Cc1ccc(C(=O)c2ccc(C#N)cc2)n1C)c1ccc(Cl)c(COc2cccc3ccc(C)nc23)c1Cl [Compound 18]
Antagonist |  | Cc1ccc2cccc(OCc3c(Cl)ccc(N(C)C(=O)Cc4ccc(C(=O)c5ccc(Cl)nc5)n4C)c3Cl)c2n1 [Compound 67, 2-[5-(6-Chloro-pyridine-3-carbonyl)-1-methyl-1H-pyrrol-2-yl]-N-[2,4-dichloro-3-(2-methyl-quinolin-8-yloxymethyl)-phenyl]-N-methyl-acetamide]
Antagonist | 50 | Cc1ccc2cccc(OCc3c(C)ccc(N(C)C(=O)CCc4ccc(C(=O)c5ccncc5)n4C)c3C)c2n1 [Compound 82]
Antagonist |  | CSc1ccc(C(=O)c2ccc(CC(=O)N(C)c3ccc(Cl)c(COc4cccc5ccc(C)nc45)c3Cl)n2C)cc1 [Compound 69]
Antagonist |  | Cc1ccc2cccc(OCc3c(Cl)ccc(N(C)C(=O)Cc4ccc(C(=O)c5ccc(C#N)cc5)n4C)c3Cl)c2n1 [Compound 76]
Antagonist | 40 | CCn1c(CC(=O)N(C)c2ccc(Cl)c(COc3cccc4ccc(C)nc34)c2Cl)ccc1C(=O)c1ccc(C#N)cc1 [Compound 8]
Antagonist |  | Cc1ccc2cccc(OCc3c(Cl)ccc(N(C)C(=O)Cc4ccc(C(=O)c5ccccc5[N+](=O)[O-])n4C)c3Cl)c2n1 [Compound 66]
Antagonist |  | Cc1ccc2cccc(OCc3c(Cl)ccc(N(C)C(=O)Cc4ccc(C(=O)c5ccc([S+](C)[O-])cc5)n4C)c3Cl)c2n1 (stereo not shown) [Compound 73, N-[2,4-Dichloro-3-(2-methyl-quinolin-8-yloxymethyl)-phenyl]-2-[5-(4-methanesulfinyl-benzoyl)-1-methyl-1H-pyrrol-2-yl]-N-methyl-acetamide]
Antagonist |  | Cc1ccc2cccc(OCc3c(Cl)ccc(N(C)C(=O)Cc4ccc(C(=O)c5ccc(S(C)(=O)=O)cc5)n4C)c3Cl)c2n1 [Compound 75, N-[2,4-Dichloro-3-(2-methyl-quinolin-8-yloxymethyl)-phenyl]-2-[5-(4-methanesulfonyl-benzoyl)-1-methyl-1H-pyrrol-2-yl]-N-methyl-acetamide]
Antagonist |  | COC(=O)c1ccc(C(=O)c2ccc(CC(=O)N(C)c3ccc(Cl)c(COc4cccc5ccc(C)nc45)c3Cl)n2C)cc1 [Compound 64]
No effect | 1 | CCCn1c(CC(=O)N(C)c2ccc(Cl)c(COc3cccc4ccc(C)nc34)c2Cl)ccc1C(=O)c1ccc(C#N)cc1 [Compound 9]
